Patent US8993542B2, “Methods of treating viral infections” (priority 2008, dated 2015)

Test system: HIV-1IIIB
Test: Two-drug combination antiviral assay in CEM cells (CPE), MacSynergy II
Type: cell-based
Details: for Antagonism Volume, Result 1 / Antagonism Volume, Result 2 / Antagonism Volume, Result 3 / Mean Antagonism Volume (n = 3) / Mean Synergy Volume (n = 3) / Synergy Volume, Result 1 / Synergy Volume, Result 2 / Synergy Volume, Result 3: in combination with CMX157, CEM-SS cells, 95% confidence; for Interpretation of Antiviral Results (MacSynergy): two-drug combination (with CMX157; control d4T/RBV), CEM-SS cells

| Compound | Antagonism Volume, Result 1 | Antagonism Volume, Result 2 | Antagonism Volume, Result 3 | Mean Antagonism Volume (n = 3) | Mean Synergy Volume (n = 3) | Synergy Volume, Result 1 | Synergy Volume, Result 2 | Synergy Volume, Result 3 | Interpretation of Antiviral Results (MacSynergy) |
| --- | --- | --- | --- | --- | --- | --- | --- | --- | --- |
| O=C1Nc2ccc(Cl)cc2C(C#CC2CC2)(C(F)(F)F)O1 (stereo not shown) [Efavirenz (EFV), 6-chloro-4-cyclopropylethynyl-4-trifluoromethyl-1,4-dihydro-2H3,1-benzoxazin-2-one] | 0 nM^2 %, μM^2 % or nMμM % | 0 nM^2 %, μM^2 % or nMμM % | 0 nM^2 %, μM^2 % or nMμM % | 0 nM^2 %, μM^2 % or nMμM % | 69.8 nM^2 %, μM^2 % or nMμM % | 85.7 nM^2 %, μM^2 % or nMμM % | 80.6 nM^2 %, μM^2 % or nMμM % | 43.2 nM^2 %, μM^2 % or nMμM % | slightly synergistic |
| Cc1cc(C#N)cc(C)c1Oc1nc(Nc2ccc(C#N)cc2)nc(N)c1Br [Etravirine (ETV), etravirine] | −0.75 nM^2 %, μM^2 % or nMμM % | 0 nM^2 %, μM^2 % or nMμM % | −0.87 nM^2 %, μM^2 % or nMμM % | −0.29 nM^2 %, μM^2 % or nMμM % | 69.0 nM^2 %, μM^2 % or nMμM % | 34.9 nM^2 %, μM^2 % or nMμM % | 106 nM^2 %, μM^2 % or nMμM % | 67.4 nM^2 %, μM^2 % or nMμM % | slightly synergistic |
| CC(C)(C)NC(=O)[C@@H]1CN(Cc2cccnc2)CCN1C[C@@H](O)C[C@@H](Cc1ccccc1)C(=O)N[C@H]1c2ccccc2C[C@H]1O [Indinavir (IDV), indinavir] | −0.56 nM^2 %, μM^2 % or nMμM % | 0 nM^2 %, μM^2 % or nMμM % | 0 nM^2 %, μM^2 % or nMμM % | −0.19 nM^2 %, μM^2 % or nMμM % | 53.0 nM^2 %, μM^2 % or nMμM % | 78.7 nM^2 %, μM^2 % or nMμM % | 62.7 nM^2 %, μM^2 % or nMμM % | 17.6 nM^2 %, μM^2 % or nMμM % | slightly synergistic |
| Cc1cccc(C)c1OCC(=O)N[C@@H](Cc1ccccc1)[C@@H](O)C[C@H](Cc1ccccc1)NC(=O)[C@H](C(C)C)N1CCCNC1=O [Lopinavir (LPV), lopinavir] | −0.31 nM^2 %, μM^2 % or nMμM % | 0 nM^2 %, μM^2 % or nMμM % | −0.12 nM^2 %, μM^2 % or nMμM % | −0.14 nM^2 %, μM^2 % or nMμM % | 55.6 nM^2 %, μM^2 % or nMμM % | 78.8 nM^2 %, μM^2 % or nMμM % | 28.3 nM^2 %, μM^2 % or nMμM % | 59.8 nM^2 %, μM^2 % or nMμM % | slightly synergistic |
| Cc1c(O)cccc1C(=O)N[C@@H](CSc1ccccc1)[C@H](O)CN1C[C@H]2CCCC[C@H]2C[C@H]1C(=O)NC(C)(C)C [Nelfinavir (NFV), nelfinavir] | 0 nM^2 %, μM^2 % or nMμM % | 0 nM^2 %, μM^2 % or nMμM % | 0 nM^2 %, μM^2 % or nMμM % | 0 nM^2 %, μM^2 % or nMμM % | 80.9 nM^2 %, μM^2 % or nMμM % | 32.1 nM^2 %, μM^2 % or nMμM % | 85.1 nM^2 %, μM^2 % or nMμM % | 125 nM^2 %, μM^2 % or nMμM % | slightly synergistic |
| Cc1ccnc2c1NC(=O)c1cccnc1N2C1CC1 [Nevirapine (NVP), nevirapine] | 0 nM^2 %, μM^2 % or nMμM % | 0 nM^2 %, μM^2 % or nMμM % | 0/0 nM^2 %, μM^2 % or nMμM % | 0 nM^2 %, μM^2 % or nMμM % | 38.5 nM^2 %, μM^2 % or nMμM % | 74.1 nM^2 %, μM^2 % or nMμM % | 41.5 nM^2 %, μM^2 % or nMμM % | 0/0 nM^2 %, μM^2 % or nMμM % | – |
| Cc1nnc(C(=O)NC(C)(C)c2nc(C(=O)NCc3ccc(F)cc3)c(O)c(=O)n2C)o1 [Raltegravir (RAL), raltegravir] | 0 nM^2 %, μM^2 % or nMμM % | 0 nM^2 %, μM^2 % or nMμM % | 0 nM^2 %, μM^2 % or nMμM % | 0 nM^2 %, μM^2 % or nMμM % | 34.3 nM^2 %, μM^2 % or nMμM % | 18.4 nM^2 %, μM^2 % or nMμM % | 1.92 nM^2 %, μM^2 % or nMμM % | 82.6 nM^2 %, μM^2 % or nMμM % | – |
| CC(C)c1nc(CN(C)C(=O)N[C@H](C(=O)N[C@@H](Cc2ccccc2)C[C@H](O)[C@H](Cc2ccccc2)NC(=O)OCc2cncs2)C(C)C)cs1 [Ritonavir (RTV), ritonavir] | 0 nM^2 %, μM^2 % or nMμM % | 0 nM^2 %, μM^2 % or nMμM % | −2.61 nM^2 %, μM^2 % or nMμM % | 0 nM^2 %, μM^2 % or nMμM % | 66.4 nM^2 %, μM^2 % or nMμM % | 47.5 nM^2 %, μM^2 % or nMμM % | 38.0 nM^2 %, μM^2 % or nMμM % | 116 nM^2 %, μM^2 % or nMμM % | slightly synergistic |
| CC(C)(C)NC(=O)[C@@H]1C[C@@H]2CCCC[C@@H]2CN1C[C@@H](O)[C@H](Cc1ccccc1)NC(=O)[C@H](CC(N)=O)NC(=O)c1ccc2ccccc2n1 [Saquinavir (SQV), saquinavir] | −2.54 nM^2 %, μM^2 % or nMμM % | −0.81 nM^2 %, μM^2 % or nMμM % | 0 nM^2 %, μM^2 % or nMμM % | −1.12 nM^2 %, μM^2 % or nMμM % | 45.2 nM^2 %, μM^2 % or nMμM % | 123 nM^2 %, μM^2 % or nMμM % | 8.35 nM^2 %, μM^2 % or nMμM % | 3.93 nM^2 %, μM^2 % or nMμM % | – |
| CCC[C@@]1(CCc2ccccc2)CC(O)=C([C@H](CC)c2cccc(NS(=O)(=O)c3ccc(C(F)(F)F)cn3)c2)C(=O)O1 [Tipranavir (TPV), tipranavir] | 0 nM^2 %, μM^2 % or nMμM % | −8.60 nM^2 %, μM^2 % or nMμM % | 0 nM^2 %, μM^2 % or nMμM % | −2.87 nM^2 %, μM^2 % or nMμM % | 52.2 nM^2 %, μM^2 % or nMμM % | 110 nM^2 %, μM^2 % or nMμM % | 29.4 nM^2 %, μM^2 % or nMμM % | 16.8 nM^2 %, μM^2 % or nMμM % | – |
| Nc1ccn([C@H]2CC[C@@H](CO)O2)c(=O)n1 [Zalcitabine (ddC), 2′,3′-dideoxycytidine] | 0 nM^2 %, μM^2 % or nMμM % | 0 nM^2 %, μM^2 % or nMμM % | −15.9 nM^2 %, μM^2 % or nMμM % | −5.29 nM^2 %, μM^2 % or nMμM % | 122 nM^2 %, μM^2 % or nMμM % | 154 nM^2 %, μM^2 % or nMμM % | 80.0 nM^2 %, μM^2 % or nMμM % | 131 nM^2 %, μM^2 % or nMμM % | highly synergistic |
| enfuvirtide | 0/0 nM^2 %, μM^2 % or nMμM % | 0 nM^2 %, μM^2 % or nMμM % | 0/0 nM^2 %, μM^2 % or nMμM % | 0 nM^2 %, μM^2 % or nMμM % | 1.02 nM^2 %, μM^2 % or nMμM % | 0/0 nM^2 %, μM^2 % or nMμM % | 3.05 nM^2 %, μM^2 % or nMμM % | 0/0 nM^2 %, μM^2 % or nMμM % | – |
